Assay results reported in patent US9345742B2, “Aminostatin derivatives for the treatment of arthrosis” (MERCK PATENT GMBH, priority 2011, dated 2016).

Experiments:
bovine explants = test: Cartilage explant assay (pH-induced cartilage degradation, GAG liberation); assay type: cell-based; settings: Bos taurus, 72 h, pH 5.5, 3 days
From the text: In order to investigate the effect of potential cathepsin D inhibitors on cartilage degradation, a pH-induced model based on bovine explants is used. The pH of the medium in which the explants are cultivated is matched here to the pathophysiological pH of an arthrotic knee. This pH is pH 5.5. In this ex vivo model, potential cathepsin D inhibitors are subsequently investigated for their action with respect to stopping of the cartilage degradation process. If the cartilage is destroyed, glycosaminoglycans (GAGs) are released into the cell culture supernatant. The amount of GAGs liberated can be determined quantitatively with the aid of DMMB (dimethylmethylene blue hydrochloride). If sulfated GAGs are detected using dimethylmethylene blue hydrochloride, the decrease in the absorption at 633 nm is utilised. […] In order to determine the concentration, a calibration line is also recorded using chondroitin sulfate.
The bovine explants are firstly prepared. The induction of the cartilage degradation is carried out in 96-multiwell plates. One explant is cultivated per well. In each case, 200 μl of DMEM (incubation medium pH 5.5) without FBS+30 μg/ml of ascorbic acid are added. Thus negative control, explants (n=4) are incubated at pH 7.4 (without FBS). This control is not included in the calculation of the data, but instead ensures that the pH change has the desired effect on the liberation of GAG. At this point, the substances to be tested are added. No preincubation of the explants is carried out. The explants are cultivated with the corresponding substances for 3 days in the incubator at 37° C. and 7.5% CO2.
In order to investigate the effect of cathepsin D inhibitors on the liberation of GAG (glycosaminoglycan), the substances are employed in the desired concentration and cultivated for 3 days. The compounds to be tested are tested in a first experiment in a concentration of 1 μM and 1% of DMSO. Substances which have an effect of >50% on the liberation of GAG (this corresponds to <50% of the control in the Assay Explorer) are tested in the next experiment at 100 nM and 1% of DMSO. Substances which have an effect of >50% on the liberation of GAG under these conditions (this corresponds to <50% of the control in the Assay Explorer) are tested in a concentration/effect relationship. The compounds here are investigated in the following concentrations: 30 μM, 10 μM, 3 μM, 1 μM, […], 0.1 μM, 0.03 μM, 0.01 μM.
The positive control used is pepstatin A with a concentration of 0.01 μM. The assay window is defined by the control (pH 5.5), defined as 0% effect, and the control pH 5.5+0.01 μM pepstatin A, defined as 100% effect. After incubation for 3 days, the cell culture supernatants are collected and stored at −20° C. or measured directly. The amount of liberated GAG is measured photometrically.
The effect (1 value) of the respective substance in % based on the positive control (pH 5.5+0.01 μM pepstatin A) and the negative control (pH 5.5) is reported for concentrations of 1 μM and 100 nM. The value represents the average of 4 replicants. In the determination of a concentration/effect relationship, an IC50 value is reported to the database (Assay Explorer).
The cell culture supernatants (200 μl) are either measured directly or stored at −20° C. In order to ensure an accurate determination of the concentration (μg/ml of GAG in the supernatant) of GAG, the measurement values must be located in the linear region of the standard curve. In order to ensure this, various dilutions are routinely introduced (1/5, 1/10, 1/20, 1/40). The dilutions are prepared with medium and introduced automatically (Hamilton) into a 384-well plate (15 μl). 60 μl of DMMB solution are likewise added automatically (or using a multichannel pipette). A rapid colour reaction occurs, which is subsequently measured at 633 nm using a plate reader (for example Envision).

[1] = Stability in bovine synovial fluid; assay type: in vitro ADME; settings: 1 μM, 48 h at 37° C.
Method: In order to check the stability of individual compounds, a pool of four different bovine synovial fluids is mixed. To this end, about 1 ml per SF is used. The mixture is prepared directly in a 5 ml glass vessel. The SFs are mixed thoroughly, but carefully. No air bubbles or foam should form. To this end, a vortex unit is used at the lowest speed. The compounds to be tested are tested in an initial concentration (unless required otherwise) of 1 μM. After addition of the substance, the batch is again mixed thoroughly and carefully. For visual monitoring, all SF batches are photographed, and the pictures are filed in the eLabBio file for the corresponding experiment. […] The batches are incubated in the incubator for 48 h at 37° C. and 7.5% CO2.
The sampling is carried out after the pre-agreed times (unless required otherwise, see below). 200 μl of the SF are removed from the mixture per time and transferred directly into a 0.5 ml “low-binding” Eppendorf vessel. “Low-binding” Eppendorf vessels are used in order to minimise interaction of the substances with the plastic of the vessels. 200 μl of acetonitrile have already been introduced into the Eppendorf vessel, so that a 1+1 mixture of the SF forms thereafter. This simplifies the subsequent analysis, but precipitation of protein may occur immediately after addition of the SF. This should be noted on the protocol. The 0 h sample is taken immediately after addition of the substance. This corresponds to the 100% value in the stability calculation. Ideally, the concentration employed should be retrieved here. The samples can be frozen at −20° C. • 0 h • 6 h • 24 h • 48 h
The negative control used is SF without substance. The positive control used is SF with 1 μM of substance. This corresponds to the 0 h value and thus 100% stability.
The concentrations measured (ng/ml) are plotted against the time in a graph (GraphPad Prism®). The percentage stability of the substance is determined here. The 100% value used is the initial value in the SF at time 0 h. The data are stored in eLabBio under the respective experiment number and reported in the MSR database (as percent stability after the corresponding incubation times).

Stability in synovial fluid [1]: stable
Structure (SMILES): CCC(CC)NC(=O)[C@@H](NC(=O)C[C@H](N)[C@H](Cc1ccccc1)NC(=O)[C@@H](NC(=O)[C@H](CC(C)C)NC(=O)CC(C)C)C(C)C)[C@@H](C)CC [Compound 39, N-[(1S,2S)-1-(1-Ethylpropylcarbamoyl)-2-methylbutyl]-(S)-3-(S)-amino-4-{(S)-3-methyl-2-[(S)-4-methyl-2-(3-methylbutyryl-amino)pentanoylamino]butyrylamino}-5-phenylpentanamide]
IC50 (bovine explants): 0.233 nM
